Measured values from US20170290889A1, “METHODS AND COMPOSITIONS FOR TREATING DYSBIOSIS AND GASTROINTESTINAL AND INFLAMMATORY DISORDERS” (New York University, priority 2016, published 2017).

Tests used:
[1] = test system: T. trichiura; assay: Albendazole deworming of Orang Asli (formalin-ether sedimentation, Kato Katz); type: in vivo, human
[2] = test system: Hookworm; assay: as above; type: in vivo, human
[3] = test system: Ascaris spp.; assay: as above; type: in vivo, human
[4] = test system: Bacteroides vulgatus; assay: B. vulgatus colonization (stool, small intestinal tissue) in Nod2−/− mice, reported together with goblet cells; type: in vivo; details: Nod2−/− mice injected IP with complex of 5 μg recombinant cytokine and 25 μg anti-cytokine antibody for 21 days
[5] = test system: Clostridiales; assay: 16S sequencing of mouse stool / small intestinal microbiota (LEfSe); type: in vivo; details: stool of uninfected Nod2−/− mice treated with recombinant cytokine, 16S / LEfSe
[6] = test system: M2 macrophage activation genes; assay: RNA-seq gene expression analysis of small intestinal tissue (ileum) of Nod2−/− mice treated with rIL-13 or PBS; type: in vivo; details: for Log2 Fold Change: Nod2−/− mice treated with recombinant IL-13 compared to PBS controls
Source text: Mice. Nod2−/−, Rag1−/−, Nod2−/−, and Stat6−/− mice on the C57BL/6 background were previously described and bred onsite in an MNV/Helicobacter-free specific pathogen free (SPF) facility at NYU School of Medicine (6, 23). Wild-type (WT) C57BL/6 mice were purchased from Jackson Laboratory and bred onsite to generate controls for experiments. Bone marrow chimeras were generated by lethally irradiating 8-week old female recipient mice (1100 CGy in two divided doses) followed by intravenous (i.v.) injection of 5×10^6 T cell-depleted bone marrow cells from donor female mice. For anti-CD4 treatment, mice were infected with T. muris and injected intra-peritoneally (IP) with 0.25 mg anti-CD4 (clone GK1.5) or anti-IgG2b isotype control (clone LTF-2) (BioXCell) every 3 days for 21 days and animals were sacrificed on day 21. For anti-IL13 treatment, mice were infected with H. polygyrus and injected IP with 0.15 mg anti-IL13 (clone 1316H) (eBioscience) or anti-IgG1 isotype control (clone 43414) (R&D Systems) starting on day 3 post-infection every 3 days for 12 days and animals were sacrificed on day 12. For recombinant IL-13 and IL-4 experiments, mice were injected IP with a complex of 25 μg of anti-IL13 (eBio1316H) and 5 μg of recombinant IL-13 (Peprotech cat #210-13), or a complex of 25 μg of anti-IL4 (BioXcel) and 5 μg of recombinant IL-4 (Peprotech cat #214-14) for 21 days and mice were sacrificed on day 21.
Gene Expression Analysis. RNA was isolated from one cm of small intestinal tissue (ileum) from Nod2^−/− mice treated with rIL-13 or PBS, or WT mice treated with PBS for normalization. An RNA library was prepared using the TruSeq stranded total RNA, with the RiboZero Gold kit and samples were sequenced on the Illumina HiSeq to generate single-end 50 bp reads. Raw sequencing reads were aligned to the mouse reference genome mm10 and the RefSeq reference transcriptome using TopHat (v2.0.12) with the alignment parameter—library-type fr-firststrand (28). Reads with mappability score (MAPQ) <30 were removed. The total number of filtered reads were counted for each gene using htseq-count with the parameters—stranded=reverse and—mode=union. Singleton genes (i.e. genes with total count <1) were filtered and the resulting count matrix was used for differential analysis using the DESeq2 workflow with default parameters (29, 30). Differential genes with rIL-13 treatment were identified at FDR 10%. Pathway analysis was performed using the DAVID platform as previously described (6).

[7] = T. trichiura, post-treatment n=64

CCCSc1ccc2nc(NC(=O)OC)[nH]c2c1 [albendazole]
Cure rate (%) ([1]; T. trichiura, 20 days, albendazole 3 doses, 400 mg/day): 32.9% | range of epg after treatment ([1]; T. trichiura, after albendazole 3×400 mg): 22-2,266 epg | Light-intensity infections after treatment (%) [1, 7]: 70.3% | Light-intensity infections after treatment, number [1, 7]: 45 | Moderate-intensity infections after treatment (%) [1, 7]: 3.1% | Moderate-intensity infections after treatment, number [1, 7]: 2 | Total infections after treatment (%) [1, 7]: 73.4% | Total infections after treatment, number [1, 7]: 47 | Trichuris trichiura egg burden (eggs per gram of feces, Kato-Katz) ([1]; post treatment with Albendazole (3 doses, 400 mg/day)): reduced | Cure rate (%) ([2]; 20 days): 96 .3% | Number of infected persons cured after deworming ([2]; 20 days): 26 | range of epg after treatment ([2]; after albendazole 3×400 mg): 22 epg | Light-intensity infections after treatment (%) ([2]; post-treatment n=64): 1.6% | Light-intensity infections after treatment, number ([2]; post-treatment n=64): 1 | Total infections after treatment (%) ([2]; post-treatment n=64): 1.6% | Total infections after treatment, number ([2]; post-treatment n=64): 1 | Cure rate (%) ([3]; 20 days): 80.0% | Number of infected persons cured after deworming ([3]; 20 days): 8 | range of epg after treatment ([3]; after albendazole 3×400 mg): 22-4999 epg | Light-intensity infections after treatment (%) ([3]; post-treatment n=64): 3.1% | Light-intensity infections after treatment, number ([3]; post-treatment n=64): 2 | Total infections after treatment (%) ([3]; post-treatment n=64): 3.1% | Total infections after treatment, number ([3]; post-treatment n=64): 2

B1: rIL-13: recombinant IL-13 (Peprotech cat #210-13), type 2 cytokine, injected IP as complex with anti-IL13 (protein, UniProt P20109 19-131, looked up)
Interleukin-13: APGPVPRSVSLPLTLKELIEELSNITQDQTPLCNGSMVWSVDLAAGGFCVALDSLTNISNCNAIYRTQRILHGLCNRKAPTTVSSLPDTKIEVAHFITKLLSYTKQLFRHGPF
modifications: complexed with anti-IL-13 antibody
notes: recombinant IL-13 (Peprotech cat #210-13), type 2 cytokine, injected IP as complex with anti-IL13
effect on B. vulgatus and goblet cells [4]: sufficient to reproduce the effect of helminth infection | expansion of Clostridiales [5]: expansion of Clostridiales was also observed | expansion of Clostridiales ([5]; listed as IL-13): induces the expansion of bacteria from the class Clostridia in the GI tract | Log2 Fold Change ([6]; gene Arg1 (NM_007482)): 1.468 | Log2 Fold Change ([6]; gene Ccl8 (NM_021443)): 1.5 | Log2 Fold Change ([6]; gene Cd5l (NM_009690)): 1.504 | Log2 Fold Change ([6]; gene Chi3l3 (NM_009892)): 2.681 | Log2 Fold Change ([6]; gene Ear11 (NM_053113)): 1.698 | Log2 Fold Change ([6]; gene Gm11428 (NM_001081957)): 1.53 | Log2 Fold Change ([6]; gene Retnla (NM_020509)): 1.625 | Log2 Fold Change ([6]; gene Saa3 (NM_011315)): 1.846 | Log2 Fold Change ([6]; gene Serpina3n (NM_009252)): 1.58 | RNA-seq analysis of intestinal tissues: response ([6]; rIL-13 treated Nod2−/− mice): wound healing response characterized by expression of M2 macrophage genes

B2: rIL-4: recombinant IL-4 (Peprotech cat #214-14), type 2 cytokine, injected IP as complex with anti-IL4 (protein, UniProt P07750 21-140, looked up)
Interleukin-4: HIHGCDKNHLREIIGILNEVTGEGTPCTEMDVPNVLTATKNTTESELVCRASKVLRIFYLKHGKTPCLKKNSSVLMELQRLFRAFRCLDSSISCTMNESKSTSLKDFLESLKSIMQMDYS
modifications: complexed with anti-IL-4 antibody
notes: recombinant IL-4 (Peprotech cat #214-14), type 2 cytokine, injected IP as complex with anti-IL4
effect on B. vulgatus and goblet cells [4]: sufficient to reproduce the effect of helminth infection | expansion of Clostridiales [5]: expansion of Clostridiales was also observed | expansion of Clostridiales ([5]; listed as IL-4): induces the expansion of bacteria from the class Clostridia in the GI tract
